According to patent US11141421B2, “Antitumor agent for biliary tract cancer and method for treating biliary tract cancer” (FUJIFILM Corporation, priority 2018, dated 2021):

How the values were obtained:
tumor = conditions: orally administered to mice; cited from earlier work
bile duct cancer = experiment: Administration of Compound A via intravenous injection to bile duct cancer patients; therapeutic effects judged by MRI image diagnosis; type: in vivo, human; parameters: key to Therapeutic effects of the present invention: CR (Complete Response): A state in which the tumor completely disappeared.; PR (Partial Response): A state in which a sum of the sizes of the tumors was reduced by 30% or more.; SD (Stable Disease): A state in which the size of the tumor did not change.; PD (Progressive Disease): A state in which a sum of the sizes of the tumors was increased by 20% or more and also, the size was increased by 5 mm or more even at an absolute value, or a new lesion appeared
Method: This liquid pharmaceutical preparation was used in the subsequent therapy. Besides, the therapy was carried out at the University of Texas MD Anderson Cancer Center (hereinafter referred to as MDACC), and at Sarah Cannon Research Institute (hereinafter referred to as SCRI) in Denver, State of Colorado, U.S.A.
(§1) A medication cycle consisting of administration of Compound A via intravenous injection once a week from the 1st week to the 3rd week and cessation of medication in the 4th week was repeated to bile duct cancer patients Specifically, 28 days was set at one cycle, and on the 1st day, 8th day and 15th day, Compound A was administered to the patients. This cycle consisting of 28 days was repeated. A single dose of compound A was set from 40 mg/m^2 to 135 mg/m^2.
The therapeutic effects were judged according to the following criteria.
Evaluation targets were confirmed by performing image diagnosis using MRI (magnetic resonance imaging), and were then judged according to the following criteria:
CR (Complete Response): A state in which the tumor completely disappeared.
PR (Partial Response): A state in which a sum of the sizes of the tumors was reduced by 30% or more.
PD (Progressive Disease): A state in which a sum of the sizes of the tumors was increased by 20% or more and also, the size was increased by 5 mm or more even at an absolute value, or a new lesion appeared.

[1] = Side effects / drug associated AE in the clinical trial of Compound A; type: in vivo, human
Method: as §1
Bile duct cancer patient 6 is intrahepatic cholangiocarcinoma. […] Further, due to neutropenia, the dose was changed to 67.5 mg/m^2. Thereafter, SD could be maintained for 34 weeks or more.

Nc1ccn([C@@H]2S[C@H](CO)[C@@H](O)[C@@H]2F)c(=O)n1 [Compound A, 1-(2-deoxy-2-fluoro-4-thio-β-D-arabinofuranosyl)cytosine]
antitumor activity (tumor): strong antitumor activity
Therapeutic effects of the present invention (bile duct cancer; bile duct cancer patient 1 (intrahepatic bile duct cancer), single dose 40 mg/m^2 iv, days 1, 8, 15 of 28-day cycle): PR (PR (Partial Response): A state in which a sum of the sizes of the tumors was reduced by 30% or more.)
Therapeutic effect after dose increase (bile duct cancer; bile duct cancer patient 1, single dose increased to 60 mg/m^2 or 90 mg/m^2): PR (PR (Partial Response): A state in which a sum of the sizes of the tumors was reduced by 30% or more.)
Therapeutic effects of the present invention (bile duct cancer; bile duct cancer patient 2 (intrahepatic bile duct cancer), single dose 60 mg/m^2 iv): PR (PR (Partial Response): A state in which a sum of the sizes of the tumors was reduced by 30% or more.)
Therapeutic effects of the present invention (bile duct cancer; bile duct cancer patient 3 (bile duct cholangiocarcinoma), initial dose 60 mg/m^2, changed to 90 mg/m^2): SD
time for which SD could be maintained (bile duct cancer; bile duct cancer patient 3, initial dose 60 mg/m^2, changed to 90 mg/m^2): ≥ 32 weeks
Therapeutic effects of the present invention (bile duct cancer; bile duct cancer patient 4, single dose 90 mg/m^2 iv): PD (PD (Progressive Disease): A state in which a sum of the sizes of the tumors was increased by 20% or more and also, the size was increased by 5 mm or more even at an absolute value, or a new lesion appeared.)
Therapeutic effects of the present invention (bile duct cancer; bile duct cancer patient 5, single dose 90 mg/m^2 iv): SD
Therapeutic effects of the present invention (bile duct cancer; bile duct cancer patient 6 (intrahepatic cholangiocarcinoma), single dose 90 mg/m^2 in Table 1 (text: 135, then 90, then 67.5 mg/m^2)): SD
time for which SD could be maintained (bile duct cancer; bile duct cancer patient 6, after dose changes 135 to 90 to 67.5 mg/m^2): ≥ 34 weeks
side effect leading to further dose change ([1]; bile duct cancer patient 6, dose 90 mg/m^2 (then changed to 67.5 mg/m^2)): neutropenia
side effects observed ([1]; bile duct cancer patient 6, initial dose 135 mg/m^2): hypotension and suspected bacteremia
most common drug associated AE among two or more patients ([1]; clinical trial, patients including bile duct cancer patients, 40 to 135 mg/m^2 iv): fever, nausea, chills, itch, irritating, dry skin, skin separation, and fatigue
